Results reported in patent US20100267561A1, “HERBICIDAL PYRIDAZINONE DERIVATIVES” (priority 2007, published 2010).

What was measured:
Format in all cases: in vivo
rice (Oryza sativa) = experiment: Test B flooded paddy test plant response
Description: (§1) Plant species in the flooded paddy test consisted of rice (Oryza sativa), umbrella sedge (Cyperus difformis), ducksalad (Heteranthera limosa) and barnyardgrass (Echinochloa crus-galli) grown to the 2-leaf stage for testing. At time of treatment, test pots were flooded to 3 cm above the soil surface, treated by application of test compounds directly to the paddy water, and then maintained at that water depth for the duration of the test. Treated plants and controls were maintained in a greenhouse for 13 to 15 days, after which time all species were compared to controls and visually evaluated. Plant response ratings, summarized in Table B, are based on a scale of 0 to 100 where 0 is no effect and 100 is complete control. A dash (-) response means no test result.

[1] = test system: barnyardgrass (Echinochloa crus-galli); experiment: Test B flooded paddy test plant response
Description: as §1

[2] = test system: ducksalad (Heteranthera limosa); experiment: Test B flooded paddy test plant response
Description: as §1

[3] = test system: umbrella sedge (Cyperus difformis); experiment: Test B flooded paddy test plant response
Description: as §1

[4] = test system: velvetleaf (Abutilon theophrasti); experiment: Test A pre-/postemergence plant response
Description: (§2) Seeds of species selected from barnyardgrass (Echinochloa crus-galli), large crabgrass (Digitaria sanguinalis), giant foxtail (Setaria faberi), blackgrass (Alopecurus myosuroides), canarygrass (Phalaris minor), morningglory (Ipomoea coccinea), pigweed (Amaranthus retroflexus), velvetleaf (Abutilon theophrasti), wheat (Triticum aestivum), and corn (Zea mays) were planted into a blend of loam soil and sand and treated preemergence with a directed soil spray using test chemicals formulated in a non-phytotoxic solvent mixture which included a surfactant. At the same time these species were also treated with postemergence applications of test chemicals formulated in the same manner.
(§3) Plants ranged in height from 2 to 10 cm and were in the one- to two-leaf stage for the postemergence treatment. Treated plants and untreated controls were maintained in a greenhouse for approximately 10 days, after which time all treated plants were compared to untreated controls and visually evaluated for injury. Plant response ratings, summarized in Table A, are based on a 0 to 100 scale where 0 is no effect and 100 is complete control. A dash (-) response means no test results.

[5] = test system: large crabgrass (Digitaria sanguinalis); experiment: Test A pre-/postemergence plant response
Description: as §2, §3

[6] = test system: wheat (Triticum aestivum); experiment: Test A pre-/postemergence plant response
Description: as §2, §3

[7] = test system: barnyardgrass (Echinochloa crus-galli); experiment: Test A pre-/postemergence plant response
Description: as §2, §3

[8] = test system: giant foxtail (Setaria faberi); experiment: Test A pre-/postemergence plant response
Description: as §2, §3

corn (Zea mays) = experiment: Test A pre-/postemergence plant response
Description: as §2, §3

[9] = test system: morningglory (Ipomoea coccinea); experiment: Test A pre-/postemergence plant response
Description: as §2, §3

[10] = test system: pigweed (Amaranthus retroflexus); experiment: Test A pre-/postemergence plant response
Description: as §2, §3

[11] = Flood (flooded paddy test), 62 g ai/ha, scale 0 to 100, 0 no effect, 100 complete control
[12] = Flood (flooded paddy test), 125 g ai/ha, scale 0 to 100, 0 no effect, 100 complete control
[13] = Flood (flooded paddy test), 250 g ai/ha, scale 0 to 100, 0 no effect, 100 complete control
[14] = Flood, 31 g ai/ha, scale 0 to 100
[15] = Postemergence, 125 g ai/ha, 0 to 100 scale, 0 no effect, 100 complete control
[16] = Postemergence, 500 g ai/ha, 0 to 100 scale, 0 no effect, 100 complete control
[17] = Preemergence, 125 g ai/ha, 0 to 100 scale (0 no effect, 100 complete control)
[18] = Preemergence, 500 g ai/ha, 0 to 100 scale (0 no effect, 100 complete control)
[19] = Postemergence, 31 g ai/ha, 0 to 100 scale, 0 no effect, 100 complete control
[20] = Preemergence, 31 g ai/ha, 0 to 100 scale, 0 is no effect, 100 is complete control

CCc1cc(-c2ccc(Cl)c(Cl)c2)nn1-c1c(OC(=O)OC(C)C)cnn(C)c1=O [Compound 22]
Plant response rating, Rice (rice (Oryza sativa); [11]): 0 | Plant response rating, Rice (rice (Oryza sativa); [12]): 0 | Plant response rating, Rice (rice (Oryza sativa); [13]): 0 | Plant response rating, Rice (rice (Oryza sativa); [14]): 0 | Plant response rating, Barnyardgrass [1, 11]: 0 | Plant response rating, Barnyardgrass [1, 12]: 0 | Plant response rating, Barnyardgrass [1, 13]: 0 | Plant response rating, Barnyardgrass [1, 14]: 0 | Plant response rating, Ducksalad [2, 11]: 0 | Plant response rating, Ducksalad [2, 12]: 0 | Plant response rating, Ducksalad [2, 13]: 0 | Plant response rating, Ducksalad [2, 14]: 0 | Plant response rating, Sedge, Umbrella [3, 11]: 0 | Plant response rating, Sedge, Umbrella [3, 12]: 0 | Plant response rating, Sedge, Umbrella [3, 13]: 0 | Plant response rating, Sedge, Umbrella [3, 14]: 0 | Plant response rating, Velvetleaf [4, 15]: 0 | Plant response rating, Velvetleaf [4, 16]: 0 | Plant response rating, Velvetleaf [4, 17]: 0 | Plant response rating, Velvetleaf [4, 18]: 0 | Plant response rating, Crabgrass, Large [5, 15]: 10 | Plant response rating, Crabgrass, Large [5, 16]: 80 | Plant response rating, Crabgrass, Large [5, 17]: 50 | Plant response rating, Crabgrass, Large [5, 18]: 90 | Plant response rating, Wheat [6, 15]: 20 | Plant response rating, Wheat [6, 16]: 60 | Plant response rating, Wheat [6, 17]: 40 | Plant response rating, Wheat [6, 18]: 70 | Plant response rating, Barnyardgrass [7, 15]: 50 | Plant response rating, Barnyardgrass [7, 16]: 90 | Plant response rating, Barnyardgrass [7, 17]: 30 | Plant response rating, Barnyardgrass [7, 18]: 100 | Plant response rating, Foxtail, Giant [8, 15]: 60 | Plant response rating, Foxtail, Giant [8, 16]: 80 | Plant response rating, Foxtail, Giant [8, 17]: 90 | Plant response rating, Foxtail, Giant [8, 18]: 100 | Plant response rating, Corn (corn (Zea mays); [15]): 20 | Plant response rating, Corn (corn (Zea mays); [16]): 90 | Plant response rating, Corn (corn (Zea mays); [17]): 30 | Plant response rating, Corn (corn (Zea mays); [18]): 70 | Plant response rating, Morningglory [9, 15]: 0 | Plant response rating, Morningglory [9, 16]: 0 | Plant response rating, Morningglory [9, 17]: 0 | Plant response rating, Morningglory [9, 18]: 0 | Plant response rating, Pigweed [10, 15]: 0 | Plant response rating, Pigweed [10, 16]: 0 | Plant response rating, Pigweed [10, 17]: 0 | Plant response rating, Pigweed [10, 18]: 0

Cc1cc(-c2ccc(OC(F)(F)F)cc2)nn1-c1c(O)cnn(C)c1=O [Compound 14]
Plant response rating, Rice (rice (Oryza sativa); [11]): 0 | Plant response rating, Rice (rice (Oryza sativa); [12]): 0 | Plant response rating, Rice (rice (Oryza sativa); [13]): 20 | Plant response rating, Rice (rice (Oryza sativa); [14]): 0 | Plant response rating, Barnyardgrass [1, 11]: 0 | Plant response rating, Barnyardgrass [1, 12]: 20 | Plant response rating, Barnyardgrass [1, 13]: 20 | Plant response rating, Barnyardgrass [1, 14]: 0 | Plant response rating, Ducksalad [2, 11]: 0 | Plant response rating, Ducksalad [2, 12]: 40 | Plant response rating, Ducksalad [2, 13]: 40 | Plant response rating, Ducksalad [2, 14]: 0 | Plant response rating, Sedge, Umbrella [3, 11]: 60 | Plant response rating, Sedge, Umbrella [3, 13]: 60 | Plant response rating, Sedge, Umbrella [3, 14]: 0 | Plant response rating, Velvetleaf [4, 15]: 0 | Plant response rating, Velvetleaf [4, 16]: 30 | Plant response rating, Velvetleaf [4, 17]: 0 | Plant response rating, Velvetleaf [4, 18]: 20 | Plant response rating, Crabgrass, Large [5, 15]: 60 | Plant response rating, Crabgrass, Large [5, 16]: 90 | Plant response rating, Crabgrass, Large [5, 17]: 70 | Plant response rating, Crabgrass, Large [5, 18]: 90 | Plant response rating, Wheat [6, 15]: 40 | Plant response rating, Wheat [6, 16]: 70 | Plant response rating, Wheat [6, 17]: 10 | Plant response rating, Wheat [6, 18]: 80 | Plant response rating, Barnyardgrass [7, 15]: 70 | Plant response rating, Barnyardgrass [7, 16]: 100 | Plant response rating, Barnyardgrass [7, 17]: 70 | Plant response rating, Barnyardgrass [7, 18]: 100 | Plant response rating, Foxtail, Giant [8, 15]: 80 | Plant response rating, Foxtail, Giant [8, 16]: 100 | Plant response rating, Foxtail, Giant [8, 17]: 80 | Plant response rating, Foxtail, Giant [8, 18]: 100 | Plant response rating, Corn (corn (Zea mays); [15]): 40 | Plant response rating, Corn (corn (Zea mays); [16]): 80 | Plant response rating, Corn (corn (Zea mays); [17]): 0 | Plant response rating, Corn (corn (Zea mays); [18]): 60 | Plant response rating, Morningglory [9, 15]: 0 | Plant response rating, Morningglory [9, 16]: 0 | Plant response rating, Morningglory [9, 17]: 0 | Plant response rating, Morningglory [9, 18]: 0 | Plant response rating, Pigweed [10, 15]: 0 | Plant response rating, Pigweed [10, 16]: 0 | Plant response rating, Pigweed [10, 17]: 0 | Plant response rating, Pigweed [10, 18]: 0

Cc1cc(-c2ccc(Cl)cc2)nn1-c1c(OS(=O)(=O)C2CC2)cnn(C)c1=O [Compound 49]
Plant response rating, Rice (rice (Oryza sativa); [11]): 0 | Plant response rating, Rice (rice (Oryza sativa); [12]): 0 | Plant response rating, Rice (rice (Oryza sativa); [13]): 0 | Plant response rating, Rice (rice (Oryza sativa); [14]): 0 | Plant response rating, Barnyardgrass [1, 11]: 0 | Plant response rating, Barnyardgrass [1, 12]: 0 | Plant response rating, Barnyardgrass [1, 13]: 0 | Plant response rating, Barnyardgrass [1, 14]: 0 | Plant response rating, Ducksalad [2, 11]: 0 | Plant response rating, Ducksalad [2, 13]: 0 | Plant response rating, Ducksalad [2, 14]: 0 | Plant response rating, Sedge, Umbrella [3, 11]: 0 | Plant response rating, Sedge, Umbrella [3, 12]: 0 | Plant response rating, Sedge, Umbrella [3, 13]: 0 | Plant response rating, Sedge, Umbrella [3, 14]: 0 | Plant response rating, Velvetleaf [4, 19]: 0 | Plant response rating, Velvetleaf [4, 15]: 0 | Plant response rating, Velvetleaf [4, 20]: 0 | Plant response rating, Velvetleaf [4, 17]: 0 | Plant response rating, Crabgrass, Large [5, 19]: 0 | Plant response rating, Crabgrass, Large [5, 15]: 20 | Plant response rating, Crabgrass, Large [5, 20]: 0 | Plant response rating, Crabgrass, Large [5, 17]: 40 | Plant response rating, Wheat [6, 19]: 0 | Plant response rating, Wheat [6, 15]: 0 | Plant response rating, Wheat [6, 20]: 0 | Plant response rating, Wheat [6, 17]: 0 | Plant response rating, Barnyardgrass [7, 19]: 0 | Plant response rating, Barnyardgrass [7, 15]: 0 | Plant response rating, Barnyardgrass [7, 20]: 0 | Plant response rating, Barnyardgrass [7, 17]: 0 | Plant response rating, Foxtail, Giant [8, 19]: 0 | Plant response rating, Foxtail, Giant [8, 15]: 20 | Plant response rating, Foxtail, Giant [8, 20]: 0 | Plant response rating, Foxtail, Giant [8, 17]: 80 | Plant response rating, Corn (corn (Zea mays); [19]): 0 | Plant response rating, Corn (corn (Zea mays); [15]): 0 | Plant response rating, Corn (corn (Zea mays); [20]): 0 | Plant response rating, Corn (corn (Zea mays); [17]): 0 | Plant response rating, Morningglory [9, 19]: 0 | Plant response rating, Morningglory [9, 15]: 0 | Plant response rating, Morningglory [9, 20]: 0 | Plant response rating, Morningglory [9, 17]: 0 | Plant response rating, Pigweed [10, 19]: 0 | Plant response rating, Pigweed [10, 15]: 0 | Plant response rating, Pigweed [10, 20]: 0 | Plant response rating, Pigweed [10, 17]: 0
